For experiment [1], the system named is MV4-11. The experiment can be described thus: Anticancer activity against human MV4-11 cells expressing FLT3-ITD mutant. Format: functional, cell-based.
The subject of the next experiment is MOLM-13. The experiment can be described thus: Anticancer activity against human MOLM-13 cells. It counts as functional, cell-based.
Experiment [2] concerns the target Mitogen-activated protein kinase; ERK1/ERK2 (Homo sapiens) (UniProt P27361+P28482). The experiment is described as follows: Inhibition of ERK1/2 phosphorylation at Thr202/Tyr204 residues in human MV4-11 cells at 0.1 uM incubated for 1 hrs by immunoblotting analysis. It counts as cell-based. On the technique in general: In western blotting, separated proteins are transferred to a membrane and probed.

For experiment [3], the system named is MV4-11. The experiment is described as follows: Induction of cell cycle arrest in human MV4-11 cells assessed as G2 phase cells at 0.1 uM by PI staining based flow cytometric analysis (reference value: 12.61 % ). Format: functional. In general terms: A flow cytometer gives signals particle by particle.
Experiment [4] deals with MV4-11. The experiment is described as follows: Induction of cell cycle arrest in human MV4-11 cells assessed as S phase cells at 0.1 uM by PI staining based flow cytometric analysis (reference value: 26.62 % ). Format: functional.
In the next experiment the test system is MCF7. The experiment is described as follows: Anticancer activity against human MCF7 cells. It counts as functional, cell-based.
Experiment [5] deals with MV4-11. The experiment is described as follows: Induction of cell cycle arrest in human MV4-11 cells assessed as G2 phase cells at 10 uM by PI staining based flow cytometric analysis (reference value: 12.61 % ). It counts as functional.
Experiment [6] has as its system MV4-11. The experiment can be described thus: Induction of cell cycle arrest in human MV4-11 cells assessed as accumulation of G1 phase cells at 0.01 uM by PI staining based flow cytometric analysis (reference value: 60.77 % ). It counts as functional.
Experiment [7] deals with T1, Signal transducer and activator of transcription 5A (Homo sapiens) (UniProt P42229).
T1 sequence (whole entry): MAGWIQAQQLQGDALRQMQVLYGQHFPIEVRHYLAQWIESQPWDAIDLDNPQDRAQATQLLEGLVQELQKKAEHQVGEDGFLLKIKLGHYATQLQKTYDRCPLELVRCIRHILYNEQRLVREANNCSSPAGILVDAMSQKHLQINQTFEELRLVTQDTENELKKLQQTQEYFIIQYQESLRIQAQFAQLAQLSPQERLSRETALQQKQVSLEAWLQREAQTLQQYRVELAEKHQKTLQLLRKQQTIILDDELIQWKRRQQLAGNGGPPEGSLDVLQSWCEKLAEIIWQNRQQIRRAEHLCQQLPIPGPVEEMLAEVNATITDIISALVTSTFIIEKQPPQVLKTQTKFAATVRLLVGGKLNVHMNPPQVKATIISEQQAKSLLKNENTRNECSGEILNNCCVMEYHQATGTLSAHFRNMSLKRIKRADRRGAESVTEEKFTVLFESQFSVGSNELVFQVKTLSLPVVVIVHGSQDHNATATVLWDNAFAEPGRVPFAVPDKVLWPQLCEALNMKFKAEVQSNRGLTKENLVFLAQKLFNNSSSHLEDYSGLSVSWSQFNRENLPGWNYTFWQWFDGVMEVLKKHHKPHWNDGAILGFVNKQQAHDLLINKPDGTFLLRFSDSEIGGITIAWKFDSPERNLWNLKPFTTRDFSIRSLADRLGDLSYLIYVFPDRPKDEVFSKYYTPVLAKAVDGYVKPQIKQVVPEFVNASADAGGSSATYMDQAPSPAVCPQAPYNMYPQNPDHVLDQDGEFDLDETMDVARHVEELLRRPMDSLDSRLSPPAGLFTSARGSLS
The experiment is described as follows: Inhibition of STAT5 phosphorylation in human MV4-11 cells at 0.01 uM incubated for 1 hrs by immunoblotting analysis. It counts as cell-based.

In the next experiment the test system is THP-1. The experiment can be described thus: Anticancer activity against human THP-1 cells. Format: functional, cell-based.
Experiment [8] concerns MV4-11. The experiment is described as follows: Induction of cell cycle arrest in human MV4-11 cells assessed as accumulation of G1 phase cells at 0.1 uM by PI staining based flow cytometric analysis (reference value: 60.77 % ). It counts as functional.
The target of experiment [9] is Cyclin-dependent kinase 9 (Homo sapiens) (UniProt P50750). The experiment is described as follows: Inhibition of CDK9 (unknown origin).
Experiment [10] deals with Cyclin-dependent kinase 2 (Homo sapiens) (UniProt P24941). The experiment is described as follows: Inhibition of CDK2 (unknown origin).
Experiment [11] has as its system MV4-11. The experiment can be described thus: Induction of cell cycle arrest in human MV4-11 cells assessed as S phase cells at 10 uM by PI staining based flow cytometric analysis (reference value: 26.62 % ). Format: functional.
Experiment [12] relates to MV4-11. The experiment can be described thus: Induction of cell cycle arrest in human MV4-11 cells assessed as accumulation of G1 phase cells at 0.001 uM by PI staining based flow cytometric analysis (reference value: 60.77 % ). It counts as functional.
The subject of experiment [13] is MV4-11. The experiment is described as follows: Induction of cell cycle arrest in human MV4-11 cells assessed as G2 phase cells at 0.01 uM by PI staining based flow cytometric analysis (reference value: 12.61 % ). It counts as functional.
A further experiment concerns CCRF-CEM. The experiment can be described thus: Anticancer activity against FLT3-independent human CCRF-CEM cells. It counts as functional, cell-based.
The test system of experiment [14] is MV4-11. The experiment can be described thus: Induction of cell cycle arrest in human MV4-11 cells assessed as accumulation of G1 phase cells at 10 uM by PI staining based flow cytometric analysis (reference value: 60.77 % ). It counts as functional.
Experiment [15] relates to MV4-11. The experiment is described as follows: Induction of cell cycle arrest in human MV4-11 cells assessed as S phase cells at 0.01 uM by PI staining based flow cytometric analysis (reference value: 26.62 % ). Format: functional.
Experiment [16] deals with MV4-11. The experiment is described as follows: Induction of cell cycle arrest in human MV4-11 cells assessed as S phase cells at 0.001 uM by PI staining based flow cytometric analysis (reference value: 26.62 % ). It counts as functional.
The subject of the next experiment is K562. The experiment is described as follows: Anticancer activity against human K562 cells. It counts as functional, cell-based.
In experiment [17] the test system is MV4-11. The experiment is described as follows: Induction of cell cycle arrest in human MV4-11 cells assessed as accumulation of G1 phase cells at 1 uM by PI staining based flow cytometric analysis (reference value: 60.77 % ). It counts as functional.
The subject of experiment [18] is MV4-11. The experiment is described as follows: Induction of cell cycle arrest in human MV4-11 cells assessed as G2 phase cells at 0.001 uM by PI staining based flow cytometric analysis (reference value: 12.61 % ). Format: functional.
For experiment [19], the target named is Receptor-type tyrosine-protein kinase FLT3 (Homo sapiens) (UniProt P36888). The experiment is described as follows: Inhibition of FLT3 autophosphorylation at tyrosine 589/591 residues in human MV4-11 cells at 0.01 uM incubated for 1 hrs by immunoblotting analysis. It counts as cell-based.
The subject of experiment [20] is MV4-11. The experiment is described as follows: Induction of cell cycle arrest in human MV4-11 cells assessed as S phase cells at 1 uM by PI staining based flow cytometric analysis (reference value: 26.62 % ). Format: functional.
Experiment [21] relates to MV4-11. The experiment is described as follows: Induction of cell cycle arrest in human MV4-11 cells assessed as G2 phase cells at 1 uM by PI staining based flow cytometric analysis (reference value: 12.61 % ). Format: functional.

SMILES strings stand for the structures. Active and inactive are the calls of the source. The calls are words filed in the database; no cut-off is given here.

Chain of Cyclin-dependent kinase 9 (Homo sapiens) (P50750 whole entry): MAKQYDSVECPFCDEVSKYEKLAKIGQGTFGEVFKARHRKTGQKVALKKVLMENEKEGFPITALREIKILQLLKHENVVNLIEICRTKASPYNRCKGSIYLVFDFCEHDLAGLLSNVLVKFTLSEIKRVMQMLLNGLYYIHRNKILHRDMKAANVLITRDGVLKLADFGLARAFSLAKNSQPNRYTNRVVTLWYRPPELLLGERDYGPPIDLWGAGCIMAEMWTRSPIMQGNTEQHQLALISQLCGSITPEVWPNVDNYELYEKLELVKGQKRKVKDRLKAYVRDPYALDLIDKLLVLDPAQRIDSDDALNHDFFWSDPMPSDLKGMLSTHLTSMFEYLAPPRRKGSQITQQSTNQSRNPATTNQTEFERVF
Chain of Receptor-type tyrosine-protein kinase FLT3 (Homo sapiens) (P36888 whole entry): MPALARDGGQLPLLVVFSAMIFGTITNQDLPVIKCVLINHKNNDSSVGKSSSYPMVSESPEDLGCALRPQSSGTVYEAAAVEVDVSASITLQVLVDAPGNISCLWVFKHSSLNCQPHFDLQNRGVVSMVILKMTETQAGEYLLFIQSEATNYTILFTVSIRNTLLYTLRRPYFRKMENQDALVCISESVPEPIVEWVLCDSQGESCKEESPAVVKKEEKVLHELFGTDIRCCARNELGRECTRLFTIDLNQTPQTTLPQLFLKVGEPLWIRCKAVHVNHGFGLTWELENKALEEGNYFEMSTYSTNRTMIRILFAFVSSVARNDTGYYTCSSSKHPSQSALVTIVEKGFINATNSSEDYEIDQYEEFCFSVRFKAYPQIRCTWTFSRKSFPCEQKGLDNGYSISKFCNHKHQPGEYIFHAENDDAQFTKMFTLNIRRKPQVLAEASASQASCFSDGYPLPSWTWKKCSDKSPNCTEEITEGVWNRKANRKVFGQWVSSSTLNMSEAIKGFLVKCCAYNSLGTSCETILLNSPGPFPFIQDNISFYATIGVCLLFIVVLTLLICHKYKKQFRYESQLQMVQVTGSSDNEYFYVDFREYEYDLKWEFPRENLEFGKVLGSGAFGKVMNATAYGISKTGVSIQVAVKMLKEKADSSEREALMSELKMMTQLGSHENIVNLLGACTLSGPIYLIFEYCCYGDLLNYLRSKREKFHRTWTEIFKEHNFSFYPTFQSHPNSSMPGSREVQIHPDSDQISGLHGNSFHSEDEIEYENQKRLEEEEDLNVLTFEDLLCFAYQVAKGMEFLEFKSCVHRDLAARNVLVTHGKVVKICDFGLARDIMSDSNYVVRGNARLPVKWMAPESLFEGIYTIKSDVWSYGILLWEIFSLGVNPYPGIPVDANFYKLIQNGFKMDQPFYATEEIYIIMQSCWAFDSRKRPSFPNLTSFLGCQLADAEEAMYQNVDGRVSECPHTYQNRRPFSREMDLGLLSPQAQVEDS
Chain of Mitogen-activated protein kinase; ERK1/ERK2 (Homo sapiens) (P27361 whole entry, looked up): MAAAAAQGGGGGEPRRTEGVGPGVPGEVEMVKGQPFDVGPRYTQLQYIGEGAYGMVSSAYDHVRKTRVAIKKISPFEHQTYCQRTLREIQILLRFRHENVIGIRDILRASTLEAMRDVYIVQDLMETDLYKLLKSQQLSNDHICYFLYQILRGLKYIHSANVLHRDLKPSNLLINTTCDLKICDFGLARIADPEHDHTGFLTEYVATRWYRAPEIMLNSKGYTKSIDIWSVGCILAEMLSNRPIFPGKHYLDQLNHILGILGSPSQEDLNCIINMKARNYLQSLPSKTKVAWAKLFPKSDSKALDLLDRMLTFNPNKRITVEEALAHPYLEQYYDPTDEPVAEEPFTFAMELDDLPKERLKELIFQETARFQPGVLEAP
Chain of Mitogen-activated protein kinase; ERK1/ERK2 (Homo sapiens) (P28482 whole entry, looked up): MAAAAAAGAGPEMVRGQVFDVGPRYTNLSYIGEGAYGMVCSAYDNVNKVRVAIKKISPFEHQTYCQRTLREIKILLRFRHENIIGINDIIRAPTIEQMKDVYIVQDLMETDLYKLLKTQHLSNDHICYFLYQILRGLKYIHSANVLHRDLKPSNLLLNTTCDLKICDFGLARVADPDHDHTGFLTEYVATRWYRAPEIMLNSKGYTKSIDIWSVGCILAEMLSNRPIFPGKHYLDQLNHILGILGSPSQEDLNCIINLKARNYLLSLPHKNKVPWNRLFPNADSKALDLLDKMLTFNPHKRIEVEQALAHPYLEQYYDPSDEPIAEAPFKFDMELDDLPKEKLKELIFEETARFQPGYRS

For the molecule `CC[C@@H](CO)Nc1cc(Nc2ccc(-c3cccs3)nc2)n2ncc(C3CCCC3)c2n1`, the result with MV4-11 [1] and in the experiment with MOLM-13 was Active.

`N[C@H]1CC[C@H](Nc2cc(Nc3ccc(CN4CCOCC4)cc3)n3ncc(C4CCCC4)c3n2)CC1`: the inhibition result in experiment [2], in [7], in experiment [9], in experiment [10] and in [19] was “Active” throughout. Moreover, the Activity in the experiment on MV4-11 [3] turned out to be 5.11%; in the experiment on MV4-11 [4], 8.66%; with MV4-11 [5], 5.93%; with MV4-11 [6], 61.96%; in the experiment on MV4-11 [8], 86.23%; in the experiment on MV4-11 [11], 18.38%. The Activity is 59.36% in the experiment with MV4-11 [12]; 12.79% in the experiment on MV4-11 [13]; 75.69% in the experiment on MV4-11 [14]; 25.25% in the experiment with MV4-11 [15]; 26.03% in the experiment with MV4-11 [16]; 76.39% in the experiment on MV4-11 [17]. For the same molecule, the Activity in the experiment with MV4-11 [18] was 14.62%; in the experiment with MV4-11 [20], 16.48%; in the experiment with MV4-11 [21], 7.13%. Also, the result in the experiment with MCF7, in the experiment with THP-1, with MV4-11 [1], in the experiment with CCRF-CEM, in the experiment on MOLM-13 and in the experiment on K562 was Active.

Turning to `N[C@H]1CC[C@H](Nc2cc(NCc3ccc(Br)cc3)n3ncc(C4CCCC4)c3n2)CC1`, the result in the experiment on MV4-11 [1] and in the experiment with MOLM-13 was Active.

On to `N[C@H]1CC[C@H](Nc2cc(Nc3ccc(-c4cccs4)nc3)n3ncc(C4CCCC4)c3n2)CC1`, for which the outcome in the experiment on MCF7, in the experiment with THP-1, with MV4-11 [1], in the experiment on CCRF-CEM, in the experiment on MOLM-13 and in the experiment with K562 was Active. The inhibition result in [9] and in [10] was “Active” throughout.

Take `NCCCCNc1cc(Nc2ccc(CN3CCOCC3)cc2)n2ncc(C3CCCC3)c2n1`: the result with MV4-11 [1] and in the experiment on MOLM-13 was Active.

Take `NCCCCNc1cc(NCc2cccc(CN3CCOCC3)c2)n2ncc(C3CCCC3)c2n1`: the outcome with MV4-11 [1] and in the experiment with MOLM-13 was Active.

Take `N[C@H]1CC[C@H](Nc2cc(Nc3cccc(CN4CCOCC4)c3)n3ncc(C4CCCC4)c3n2)CC1`: the outcome in the experiment on MV4-11 [1] and in the experiment with MOLM-13 was Active.

Turning to `N[C@H]1CC[C@H](Nc2cc(Nc3ccc(N4CC5(COC5)C4)cc3)n3ncc(C4CCCC4)c3n2)CC1`, the outcome in the experiment on MV4-11 [1] and with MOLM-13 was Active.

Source of the values: ChEMBL document CHEMBL5236627, “Synthesis and biological activity evaluation of novel 3,5,7-trisubstituted pyrazolo[1,5-a]pyrimidines” (2023).
